What was measured:
[1] = 298.15 K, in water with undefined pH; cited from earlier work
[2] = Dissolution of solid samples under dynamic conditions, side-by-side cell; assay type: physicochemical; settings: for DE60, dissolution efficacy at 60 min / DPP, dissolution performance parameter / Q15, amount of RLZ dissolved at 15 min: buffer pH 6.8, 310 K; for Q15, amount of RLZ dissolved at 15 min: RLZ amount of 100 mg daily dose; for Dose dissolved during 180 min: buffer pH 6.8, 310.15 K
Procedure: The volume of the donor compartment was 7 mL. The powdered samples were placed in the donor cell. Then, 7 mL of buffer pH 6.8 was added to the donor compartment (start of the experiment). The solution was stirred with a stirring bar at a fixed speed of 500 rpm. The cell was maintained at 310.15 K during the experiment via water circulating. The samples of the solutions (V = 0.4 mL) from the donor cell were withdrawn every 5, 10, 15, 20, 25, 30, 40, 60, 90, 120, and 180 min followed by immediate replacement with fresh medium. The experiment lasted 3 h. The samples from the donor cell were filtered (syringe nylon filter, 13 mm diameter, pore size 0.45 μm). The concentrations of the samples were measured in a 96-well UV black plate (Costar) using a spectrophotometer (Spectramax 190; Molecular devices, Molecular Devices Corporation, San Jose, CA, USA). The kinetic curves of the dissolution/release of pure RLZ and RLZ from the solid samples were obtained.
The dissolution performance parameter (DPP), was calculated as follows:(16) DPP=AUCactual/AUCtheoretical×100% where AUCactual is the integral area under the curve C0Ct, and AUCtheoretical is the integral area under the curve CmaxCmax. Dissolution efficacy after 60 min (DE60)—a percentage of the area of the rectangle described by 100% dissolution at 60 min was determined by the calculation of the area under a dissolution curve up to 60 min by the following equation [49]:(17) DE60=∫060Qdt/Q100%×60×100% where Q is the percentage of the dissolved drug, t is the dissolution time point at 60 min.

[3] = Permeation under dynamic conditions (D/P setup), cellulose membrane; assay type: in vitro ADME; settings: RC membrane, 310.15 K
Excerpt: The membrane of regenerated cellulose MWCO 12–14 kDa (Visking dialysis tubing MWCO 12–14 kDa, Medicell Membranes Ltd., London, UK) was applied as a barrier between the donor and receptor cells with an effective surface area of 1.77 cm^2. In addition, the PermeaPad barrier (PP) (PHABIOC, Germany, https://www.permeapad.com (accessed on 1 February 2023)) and polydimethylsiloxane-polycarbonate (55% polydimethylsiloxane and 45% polycarbonate, 40 μm in thickness) membrane “Carbosil” (PDS) (PENTAMED, Moscow, Russia, www.penta-med.ru) were used in a series of tests. The volume of the receptor compartment was the same as the donor one—7 mL. The donor and receptor cells were assembled with a membrane between them. The receptor compartment was filled with 7 mL of buffer pH 6.8. In the case of the samples with CD, the receptor solution contained the amount of CD equivalent to that in the solid sample. The solution in the receptor cell was stirred at 500 rpm. The constant temperature of 310.15 K was maintained. […]
Quantitative analysis of the permeation was evaluated using the flux (J) through the membrane which was determined as a slope of the permeation profiles representing the amount of permeated compound over the surface area (dQ/A) versus the time (t) in accordance with the equation:(20) J=dQ/A×dt

[4] = RLZ/CD stability constant from phase-solubility diagrams, van't Hoff thermodynamics; assay type: physicochemical; settings: for Complexation (stability) constant KCS of RLZ/CD complex: 1:1 complex
Procedure: The standard (at 298.15 K) enthalpy change ( ΔHC0,S ) and the standard entropy change ( ΔSC0,S ) upon complex formation were calculated with the help of the integral form of the van’t Hoff’s equation:(4) lnKCS=−ΔHC0,S/RT+ΔSC0,S/R where T = 298.15 K, and R is the universal gas constant. A plot of lnKCS versus 1/T produces Slope=−ΔHC0,S/R and intercept equal to ΔSC0,S/R . The standard (at 298.15 K) change of the complexation Gibbs energy ( ΔGC0,S ) was calculated as follows:(5) ΔGC0,S=−RTlnKCS

| DE60, dissolution efficacy at 60 min [2] [%] | DPP, dissolution performance parameter [2] [%] | Q15, amount of RLZ dissolved at 15 min [2] [%] | Increase of flux across the membrane, 30–180 min versus up to 30 min [3] [fold] | Compound | Stability constant of cyclodextrin complex with RLZ [1] [M⁻¹] | other results |
| --- | --- | --- | --- | --- | --- | --- |
| – | – | – | – | COC[C@H]1O[C@@H]2O[C@H]3[C@H](O)[C@@H](OC)[C@@H](O[C@H]4[C@H](O)[C@@H](OC)[C@@H](O[C@H]5[C@H](O)[C@@H](OC)[C@@H](O[C@H]6[C@H](O)[C@@H](OC)[C@@H](O[C@H]7[C@H](O)[C@@H](OC)[C@@H](O[C@H]8[C@H](O)[C@@H](OC)[C@@H](O[C@H]1[C@H](O)[C@H]2OC)O[C@@H]8COC)O[C@@H]7COC)O[C@@H]6COC)O[C@@H]5COC)O[C@@H]4COC)O[C@@H]3COC [DM-β-CD, 2,6-di-O-methyl-β-cyclodextrin] | 1609.1 | – |
| – | – | – | – | CC(O)COC[C@H]1O[C@@H]2O[C@H]3[C@H](O)[C@@H](O)[C@@H](O[C@H]4[C@H](O)[C@@H](O)[C@@H](O[C@H]5[C@H](O)[C@@H](O)[C@@H](O[C@H]6[C@H](O)[C@@H](O)[C@@H](O[C@H]7[C@H](O)[C@@H](O)[C@@H](O[C@H]8[C@H](O)[C@@H](O)[C@@H](O[C@H]1[C@H](O)[C@H]2O)O[C@@H]8COCC(C)O)O[C@@H]7COCC(C)O)O[C@@H]6COCC(C)O)O[C@@H]5COCC(C)O)O[C@@H]4COCC(C)O)O[C@@H]3COCC(C)O (stereo partly drawn) [HP-β-CD, hydroxypropyl-β-cyclodextrin] | 2327 | – |
| 39.9 | 57.0 | 28.3 | 1.3 | Nc1nc2ccc(OC(F)(F)F)cc2s1 [RLZ_gr] | – | Dose dissolved during 180 min ([2]; listed as ground RLZ): 72%; Similarity factor f2 ([2]; reference raw RLZ, f2 > 50 shows similarity): 49.9 |
| 30.0 | 46.2 | 22.9 | 1.3 | Nc1nc2ccc(OC(F)(F)F)cc2s1 [RLZ_raw] | – | Dose dissolved during 180 min ([2]; listed as raw RLZ): 62% |
| – | – | – | – | OC[C@H]1O[C@@H]2O[C@H]3[C@H](O)[C@@H](O)[C@@H](O[C@H]4[C@H](O)[C@@H](O)[C@@H](O[C@H]5[C@H](O)[C@@H](O)[C@@H](O[C@H]6[C@H](O)[C@@H](O)[C@@H](O[C@H]7[C@H](O)[C@@H](O)[C@@H](O[C@H]1[C@H](O)[C@H]2O)O[C@@H]7CO)O[C@@H]6CO)O[C@@H]5CO)O[C@@H]4CO)O[C@@H]3CO [α-CD, α-cyclodextrin] | – | Fold lower association constant of RLZ as compared to SBE-β-CD [4]: approximately 11 fold; Complexation (stability) constant KCS of RLZ/CD complex ([4]; pH 6.8, 310.15 K): 102.3 M⁻¹ |
| – | – | – | – | sulfobutylether-β-cyclodextrin [SBE-β-CD] | – | Fold more stable RLZ complex as compared to α-CD ([4]; from Table 2): 11 fold; Complexation (stability) constant KCS of RLZ/CD complex ([4]; pH 6.8, 298.15 K): 1116.0 M⁻¹ |

— PMC11206789, “Controlling the Solubility, Release Rate and Permeation of Riluzole with Cyclodextrins” (Pharmaceutics, 2024)
